Source: US20090068290A1, “BIFEPRUNOX DOSES FOR TREATING SCHIZOPHRENIA” (priority 2006, published 2009)

Legend:
Assay type in all cases: in vivo, human
[1] = Body weight, Clinical Study One
Procedure: Statistical testing of the change from Baseline in weight was performed using similar methodology to that used for the secondary efficacy parameters (an ANCOVA model with factors for treatment and weight at Baseline). Pairwise comparisons of the bifeprunox treatment groups versus placebo were all statistically significant (bifeprunox 5 mg [p=0.025], bifeprunox 10 mg [p=0.009] and bifeprunox 20 mg [p=0.031] for the difference between bifeprunox and placebo mean change from Baseline in weight at Endpoint.

[2] = test system: adult subjects with schizophrenia; test: CGI Improvement score, Clinical Study Three; set-up: CGI Improvement Very Much Worse, %: dose or concentration left out as unconfirmed; conditions: LOCF
Procedure: CLINICAL STUDY THREE: Table 29 below presents frequencies for the seven categories of CGI Improvement ratings by visit using LOCF for the ITT population. Statistical differences among treatment groups regarding the mean CGI Improvement score were evaluated using a CMH test stratified by pooled center applied to the frequencies of the seven CGI Improvement categories with modified ridit scores. […] The treatment comparison of the 30 mg bifeprunox group versus placebo group was not notable (p=0.162). No notable differences were observed between the placebo group and either of the two bifeprunox dose groups at any other time point during the study (Week 1 through Week 4).

[3] = test system: adult subjects with schizophrenia; test: PANSS total score, Clinical Study Three (6-week, olanzapine-referenced); conditions: for Change from Baseline in PANSS Total Score, Mean (SD) / Change from Baseline in PANSS Total Score, Median / PANSS Total Score, Trt Effect (difference between bifeprunox and placebo): LOCF, ITT; for PANSS Total Score, Trt Effect (difference between bifeprunox and placebo): ANCOVA
Procedure: There were four treatment arms in this study, approximately 144 subjects per arm. […] After completing the Single-Blind Placebo Lead-in Period of at least three days, bifeprunox-treated subjects were titrated from 0.25 mg up to 20 mg/day or 30 mg/day according to a standardized titration scheme over a seven- or eight-day period, respectively. When the assigned dose was reached, subjects were maintained at that dose for the remainder of the six week treatment period. […] Subjects were hospitalized (if not already inpatients) after eligibility for study entry was verified, starting from the Screening Visit until at least 10 days after Baseline. Subjects could be hospitalized longer than 10 days if considered medically necessary by the Investigator. Rating scale assessments for efficacy and abnormal movement disorders were done weekly except for Week 5. Safety assessments were performed at Screening, during treatment and at the end of the study. Subject satisfaction with study medication was assessed at Week 6. Samples of whole blood were obtained at Weeks 2, 4, and 6 for determination of bifeprunox in plasma.
Test Product, Dose and Mode of Administration: Bifeprunox tablets, total daily dose 20 mg or 30 mg (one 20 mg tablet and one 10 mg tablet) administered orally using a once daily dosing regimen.

[4] = test system: adult subjects with schizophrenia; test: CGI Improvement score, Clinical Study One; set-up: Actual Value of CGI Improvement Score, Median / CGI Improvement Score, Trt Effect: scale not given here
Procedure: There were five treatment groups in this study. […] Study medication was administered once daily. After Baseline measurements were performed, the titration phase was begun. Bifeprunox treated subjects were titrated up to 5 mg, 10 mg or 20 mg according to a standardized titration schedule (Day 1: 0.125 mg, Day 2: 0.25 mg, Day 3: 0.5 mg, Day 4: 1.0 mg, Day 5: 2.0 mg, Day 6: 5.0 mg, Day 7: 10.0 mg, Day 8: 20 mg). When the assigned dose was reached, subjects were maintained at that dose for the remainder of the six-week treatment period.
The change in the Positive and Negative Symptom Scale (PANSS) total score, from baseline to endpoint, was the primary outcome measure. Secondary efficacy measures included: PANSS positive, PANSS negative, PANSS general psychopathology (GPP) score, PANSS-derived Brief Psychiatric Rating Scale (BPRS) score, Clinical Global Impressions-Severity of Illness (CGI-S), CGI-Improvement (CGI-I) scores, and responder rates. Safety and tolerability evaluations included extrapyramidal symptoms (EPS), weight gain, lipid profile, and serum prolactin.

[5] = Bifeprunox 20 mg, Week 6/Endpoint
[6] = Bifeprunox 30 mg, Week 6/Endpoint

In the case of O=c1[nH]c2cccc(N3CCN(Cc4cccc(-c5ccccc5)c4)CC3)c2o1 [Bifeprunox, 7-[4-([1,1′-biphenyl]-3-ylmethyl)-1-piperazinyl]-2(3H)-benzoxazolone], the “mean weight change at Endpoint” value ([1]; bifeprunox 5 mg) is reported as −1.0 lb, the “subjects whose weight decreased by more than 7%” value ([1]; bifeprunox 5 mg) is reported as 6% and the “mean weight change at Endpoint” value ([1]; bifeprunox 10 mg) is reported as −1.3 lb. The “subjects whose weight decreased by more than 7%” value ([1]; bifeprunox 10 mg) was 7%, the “mean weight change at Endpoint” value ([1]; bifeprunox 20 mg) was −0.6 lbs and the “subjects whose weight decreased by more than 7%” value ([1]; bifeprunox 20 mg) was 8%. The “body weight (in words)” value ([1]; bifeprunox groups, 6 weeks) was “Mild weight loss”, the “weight compared to placebo” value ([1]; bifeprunox, 6 weeks (Example 4)) was “statistically significant (P<0.05) weight decrease” and the “CGI Improvement Minimally Improved, %” value ([2]; 30 mg, Week 2) was “(45%)”. For the same molecule, the “CGI Improvement Minimally Worse, %” value ([2]; 30 mg, Week 2) was “(9%)”, the “CGI Improvement Much Improved, %” value ([2]; 30 mg, Week 2) was “(21%)” and the “CGI Improvement Much Worse, %” value ([2]; 30 mg, Week 2) was “(4%)”. The “CGI Improvement No Change, %” value ([2]; 30 mg, Week 2) was “(19%)”, the “CGI Improvement Very Much Improved, %” value ([2]; 30 mg, Week 2) was “(2%)” and the “CGI Improvement Minimally Improved, %” value ([2]; 30 mg, Week 4) was “(30%)”. For the same molecule, the “CGI Improvement Minimally Worse, %” value ([2]; 30 mg, Week 4) was “(11%)”, the “CGI Improvement Much Improved, %” value ([2]; 30 mg, Week 4) was “(32%)” and the “CGI Improvement Much Worse, %” value ([2]; 30 mg, Week 4) was “(6%)”. For the same molecule, the “CGI Improvement No Change, %” value ([2]; 30 mg, Week 4) was “(17%)”, the “CGI Improvement Very Much Improved, %” value ([2]; 30 mg, Week 4) was “(5%)” and the “CGI Improvement Minimally Improved, %” value ([2]; 30 mg, Week 6/Endpoint) was “(28%)”. For the same molecule, the “CGI Improvement Minimally Worse, %” value ([2]; 30 mg, Week 6/Endpoint) was “(13%)”, the “CGI Improvement Much Improved, %” value ([2]; 30 mg, Week 6/Endpoint) was “(33%)” and the “CGI Improvement Much Worse, %” value ([2]; 30 mg, Week 6/Endpoint) was “(7%)”. For the same molecule, the “CGI Improvement No Change, %” value ([2]; 30 mg, Week 6/Endpoint) was “(15%)”, the “CGI Improvement Very Much Improved, %” value ([2]; 30 mg, Week 6/Endpoint) was “(5%)” and the “CGI Improvement Minimally Improved, %” value ([2]; 40 mg, Week 2) was “(37%)”. The “CGI Improvement Minimally Worse, %” value ([2]; 40 mg, Week 2) was “(7%)”, the “CGI Improvement Very Much Improved, %” value ([2]; 40 mg, Week 2) was “(<1%.)” and the “CGI Improvement Minimally Improved, %” value ([2]; 40 mg, Week 4) was “(29%)”. The “CGI Improvement Minimally Worse, %” value ([2]; 40 mg, Week 4) was “(8%)”, the “CGI Improvement Very Much Improved, %” value ([2]; 40 mg, Week 4) was “(3%)” and the “CGI Improvement Minimally Improved, %” value ([2]; 40 mg, Week 6/Endpoint) was “(30%)”. For the same molecule, the “CGI Improvement Minimally Worse, %” value ([2]; 40 mg, Week 6/Endpoint) was “(8%)”, the “CGI Improvement Very Much Improved, %” value ([2]; 40 mg, Week 6/Endpoint) was “(7%)” and the “CGI Improvement Much Improved, %” value ([2]; Week 2) was “(19%)”. For the same molecule, the “CGI Improvement Much Worse, %” value ([2]; Week 2) was “(10%)”, the “CGI Improvement No Change, %” value ([2]; Week 2) was “(22%)” and the “CGI Improvement Very Much Worse, %” value ([2]; Week 2) was “(<1%)”. For the same molecule, the “CGI Improvement Much Improved, %” value ([2]; Week 4) was “(30%)”, the “CGI Improvement Much Worse, %” value ([2]; Week 4) was “(11%)” and the “CGI Improvement No Change, %” value ([2]; Week 4) was “(17%)”. The “CGI Improvement Very Much Worse, %” value ([2]; Week 4) was “(1%)”, the “CGI Improvement Much Improved, %” value ([2]; Week 6/Endpoint) was “(27%)” and the “CGI Improvement Much Worse, %” value ([2]; Week 6/Endpoint) was “(11%)”. The “CGI Improvement No Change, %” value ([2]; Week 6/Endpoint) was “(16%)”, the “CGI Improvement Very Much Worse, %” value ([2]; Week 6/Endpoint) was “(1%)” and the “Change from Baseline in PANSS Total Score, Mean (SD)” value (“Change from Baseline … (SD)” for short) ([3]; Bifeprunox 20 mg, Week 1) was −5.6 (11.7). For the same molecule, the “Change from Baseline in PANSS Total Score, Median” value (from here on “Change from Baseline … Median”) ([3]; Bifeprunox 20 mg, Week 1) was −5, the “Change from Baseline … (SD)” value ([3]; Bifeprunox 20 mg, Week 2) was −10.2 (14.8) and the “Change from Baseline … Median” value ([3]; Bifeprunox 20 mg, Week 2) was −10. For the same molecule, the “Change from Baseline … (SD)” value ([3]; Bifeprunox 20 mg, Week 3) was −12.6 (16.9), the “Change from Baseline … Median” value ([3]; Bifeprunox 20 mg, Week 3) was −13 and the “Change from Baseline … (SD)” value ([3]; Bifeprunox 20 mg, Week 4) was −13.3 (18.7). The “Change from Baseline … Median” value ([3]; Bifeprunox 20 mg, Week 4) was −13, the “Change from Baseline … (SD)” value [3, 5] was −13.8 (19.9) and the “Change from Baseline … Median” value [3, 5] was −14. For the same molecule, the “PANSS Total Score, Trt Effect (difference between bifeprunox and placebo)” value [3, 5] was −3.5, the “Change from Baseline … Median” value ([3]; Bifeprunox 30 mg, Week 1) was −6 and the “Change from Baseline … (SD)” value ([3]; Bifeprunox 30 mg, Week 2) was −8.5 (15.6). The “Change from Baseline … Median” value ([3]; Bifeprunox 30 mg, Week 2) was −9, the “Change from Baseline … (SD)” value ([3]; Bifeprunox 30 mg, Week 3) was −11.1 (18.0) and the “Change from Baseline … Median” value ([3]; Bifeprunox 30 mg, Week 3) was −11. For the same molecule, the “Change from Baseline … (SD)” value ([3]; Bifeprunox 30 mg, Week 4) was −12.0 (18.6), the “Change from Baseline … Median” value ([3]; Bifeprunox 30 mg, Week 4) was −13 and the “Change from Baseline … (SD)” value [3, 6] was −13.1 (20.2). For the same molecule, the “Change from Baseline … Median” value [3, 6] was −13, the “PANSS Total Score, Trt Effect (difference between bifeprunox and placebo)” value [3, 6] was −2.2 and the “efficacy compared to placebo, primary and key secondary efficacy parameters” value ([3]; bifeprunox 20 mg and 30 mg, Endpoint) was “did not demonstrate efficacy as compared to the placebo group”. For the same molecule, the “CGI Improvement Score, Trt Effect” value ([4]; 5 mg versus placebo, Endpoint LOCF) was −0.28, the “Actual Value of CGI Improvement Score, Mean (S.D.)” value (shortened to “Actual Value … (S.D.)”) ([4]; 5 mg, Endpoint LOCF) was 3.33 (1.37) and the “Actual Value of CGI Improvement Score, Median” value (“Actual Value … Median” for short) ([4]; 5 mg, Endpoint LOCF) was 3.0. The “Actual Value … (S.D.)” value ([4]; 5 mg, Week 1, LOCF) was 3.76 (0.85), the “Actual Value … Median” value ([4]; 5 mg, Week 1, LOCF) was 4.0 and the “Actual Value … (S.D.)” value ([4]; 5 mg, Week 2, LOCF) was 3.46 (1.10). The “Actual Value … Median” value ([4]; 5 mg, Week 2, LOCF) was 3.0, the “Actual Value … (S.D.)” value ([4]; 5 mg, Week 3, LOCF) was 3.2 (1.27) and the “Actual Value … Median” value ([4]; 5 mg, Week 3, LOCF) was 3.0. The “Actual Value … (S.D.)” value ([4]; 5 mg, Week 4, LOCF) was 3.37 (1.35), the “Actual Value … Median” value ([4]; 5 mg, Week 4, LOCF) was 3.0 and the “CGI Improvement Score, Trt Effect” value ([4]; 10 mg versus placebo, Endpoint LOCF) was 0.28. The “Actual Value … (S.D.)” value ([4]; 10 mg, Endpoint LOCF) was 3.90 (1.39), the “Actual Value … Median” value ([4]; 10 mg, Endpoint LOCF) was 4.0 and the “Actual Value … (S.D.)” value ([4]; 10 mg, Week 1, LOCF) was 3.88 (1.00). The “Actual Value … Median” value ([4]; 10 mg, Week 1, LOCF) was 4.0, the “Actual Value … (S.D.)” value ([4]; 10 mg, Week 2, LOCF) was 3.71 (1.23) and the “Actual Value … Median” value ([4]; 10 mg, Week 2, LOCF) was 4.0. The “Actual Value … (S.D.)” value ([4]; 10 mg, Week 3, LOCF) was 3.79 (1.32), the “Actual Value … Median” value ([4]; 10 mg, Week 3, LOCF) was 4.0 and the “Actual Value … (S.D.)” value ([4]; 10 mg, Week 4, LOCF) was 3.86 (1.35). For the same molecule, the “Actual Value … Median” value ([4]; 10 mg, Week 4, LOCF) was 4.0, the “CGI Improvement Score, Trt Effect” value ([4]; 20 mg versus placebo, Endpoint LOCF) was −0.21 and the “Actual Value … (S.D.)” value ([4]; 20 mg, Endpoint LOCF) was 342 (1.30). For the same molecule, the “Actual Value … Median” value ([4]; 20 mg, Endpoint LOCF) was 3.0, the “Actual Value … (S.D.)” value ([4]; 20 mg, Week 1, LOCF) was 3.54 (0.99) and the “Actual Value … Median” value ([4]; 20 mg, Week 1, LOCF) was 4.0. For the same molecule, the “Actual Value … (S.D.)” value ([4]; 20 mg, Week 2, LOCF) was 3.30 (114), the “Actual Value … Median” value ([4]; 20 mg, Week 2, LOCF) was 3.0 and the “Actual Value … (S.D.)” value ([4]; 20 mg, Week 3, LOCF) was 3.31 (1.19). For the same molecule, the “Actual Value … Median” value ([4]; 20 mg, Week 3, LOCF) was 3.0, the “Actual Value … (S.D.)” value ([4]; 20 mg, Week 4, LOCF) was 3.35 (1.29) and the “Actual Value … Median” value ([4]; 20 mg, Week 4, LOCF) was 3.0.
